Format in all cases: cell-based
The test system of test [1] is human hepatic stellate cells LX-2. The experiment in a line: Anti-fibrosis activity test: inhibition of proliferation of human hepatic stellate cells LX-2 (CCK-8). The conditions noted are these: Homo sapiens, 48 h, human hepatic stellate cells LX-2, CCK-8, 48 hours. The essentials:
(§1)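 Seed 2×10^4 cells/mL; adhere 24 h, 37° C/5% CO2. Compounds, serial concentrations, triplicate, 48 h. CCK-8 2 h, A450. IR=(1−Ai/Ao)×100% vs blank; IC50 fitted. Pirfenidone as positive control.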

Test [2] deals with human embryonic lung fibroblast IMR-90. The experiment in a line: Anti-fibrosis activity test: inhibition of proliferation of human embryonic lung fibroblast IMR-90 (CCK-8). The conditions noted are these: human embryonic lung fibroblast IMR-90, CCK-8, 48 hours. A digest of the protocol:
as §1

In test [3] the test system is human lung fibroblasts HFL1. The experiment in a line: Anti-fibrosis activity test: inhibition of proliferation of human lung fibroblasts HFL1 (CCK-8). As to conditions: Homo sapiens, HFL1, 48 h, human lung fibroblasts HFL1, CCK-8, 48 hours. The essentials:
as §1

The test system of test [4] is mouse macrophages (RAW264.7). The experiment in a line: Lipopolysaccharide-induced NO secretion in macrophages (Griess). The conditions noted are these: Mus musculus, RAW264.7, 24 h, RAW264.7, LPS 1 μg/ml, a/b isomers given as first/second symbol, read-out: IC50 (μM), inhibition of lipopolysaccharide-induced NO secretion in macrophages. The essentials:
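LPS 1 μg/ml, 24 h, RAW264.7 (DMEM/10% FBS); cpds at varied concs. Supernatant NO by Griess, A548; % inhibition vs blank medium.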

The next test deals with NF-κB. As to the kind of experiment: Immunological activity test: inhibition of NF-κB activity. The conditions noted are these: initial concentration of 30 μM; a/b isomers given as first/second symbol; read-out: IC50 (μM), inhibitory activity against NF-κB. A digest of the protocol:
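Initial screen at 30 μM; parthenolide positive control. IC50s derived from follow-up analysis.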

The test system of test [5] is human fibrosarcoma cells HT-1080. The experiment in a line: Anti-fibrosis activity test: inhibition of proliferation of human fibrosarcoma cells HT-1080 (CCK-8). As to conditions: Homo sapiens, HT-1080, 48 h, human fibrosarcoma cells HT-1080, CCK-8, 48 hours. The essentials:
as §1

For test [6], the system named is human dermal fibroblasts CCC-ESF-1. The experiment in a line: Anti-fibrosis activity test: inhibition of proliferation of human dermal fibroblasts CCC-ESF-1 (CCK-8). As to conditions: Fibroblast; human dermal fibroblasts CCC-ESF-1, CCK-8, 48 hours. A digest of the protocol:
as §1

The next test has as its system BHK-21 cells. As to the kind of experiment: Anti-fibrosis activity test: inhibition of BHK-21 cell proliferation (CCK-8). The conditions noted are these: Mesocricetus auratus, BHK-21, 48 h, CCK-8, 48 hours after administration. The essentials: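 Cells seeded at 2×10^4 cells/mL, allowed to adhere 24 hours, then exposed to graded compound concentrations in triplicate for 48 hours at 37° C, 5% CO2. CCK-8 added for 2 hours, absorbance read at 450 nm; inhibition versus blank control used to derive IC50. Pirfenidone served as positive control.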

The test system of test [7] is cardiac fibroblast RAT-iCell-C002. The experiment in a line: Anti-fibrosis activity test: inhibition of proliferation of cardiac fibroblast RAT-iCell-C002 (CCK-8). The conditions noted are these: Cardiac fibroblast, 48 h, cardiac fibroblast RAT-iCell-C002, CCK-8, 48 hours. A digest of the protocol: as §1

Some results are limits rather than exact numbers.

Drawing on patent publication US11040028B2, “Penicinotam derivative, preparation method and use thereof” (OCEAN UNIVERSITY OF CHINA, priority 2017, dated 2021), this text covers IC50 for 15 compounds.

With `O=C1c2c(nc3ccccc3c2OCc2ccc(Cl)cc2)-c2cccn21` [Compound 589b, 9-((4-chlorobenzyl)oxy)-10H-pyrrolizino[1,2-b]quinolin-10-one], the IC50 in test [1] was under 0.05 mM; in [2] it was 0.05 to 5 mM; in [3] it was 0.05 to 5 mM; in test [4], 1 to 10 µM; in the test on NF-κB it was 1 to 10 µM; in [5], under 0.05 mM. Moreover, the IC50 (in [6]; in the test with BHK-21 cells; in test [7]) was 0.05 to 5 mM each time.

For the compound `N#Cc1ccc(Cn2c3c(c(=O)c4ccccc42)C(=O)n2cccc2-3)cc1` [Compound 590a, 4-((9,10-Dioxo-9H-pyrrolizino[1,2-b]quinolin-4(10H)-yl)methyl)benzonitrile], the IC50 lay in the range of 0.05 to 5 mM in [1]; 0.05 to 5 mM in test [2]; 0.05 to 5 mM in test [3]; 1 to 10 µM in test [4]; 1 to 10 µM in the test on NF-κB; 0.05 to 5 mM in test [5]. For the same compound, the IC50 (in test [6]; in the test on BHK-21 cells; in test [7]) was 0.05 to 5 mM each time.

In the case of `N#Cc1ccc(COc2c3c(nc4ccccc24)-c2cccn2C3=O)cc1` [Compound 590b, 4-(((10-oxo-10H-pyrrolizino[1,2-b]quinolin-9-yl)oxy)methyl)benzonitrile], the IC50 lay within 0.05 to 5 mM in test [1]; 0.05 to 5 mM in [2]; 0.05 to 5 mM in test [3]; 1 to 10 µM in [4]; 1 to 10 µM in the test on NF-κB; 0.05 to 5 mM in [5]. Also, the IC50 (in test [6]; in the test on BHK-21 cells; in test [7]) was 0.05 to 5 mM in each case.

In the case of `O=C1c2c(n(Cc3ccc(C(F)(F)F)cc3)c3ccccc3c2=O)-c2cccn21` [Compound 591a, 4-(4-(Trifluoromethyl)benzyl)-9H-pyrrolizino[1,2-b]quinoline-9,10(4H)-dione], the IC50 in test [1] lay in the range of 0.05 to 5 mM; in test [2] it was 0.05 to 5 mM; in test [3], 0.05 to 5 mM; in test [4] it was 0.1 to 1 µM; with NF-κB, 1 to 10 µM; in test [5], 0.05 to 5 mM. The IC50 (in test [6]; in the test on BHK-21 cells; in test [7]) was 0.05 to 5 mM throughout.

Take `O=C1c2c(nc3ccccc3c2OCc2ccc(C(F)(F)F)cc2)-c2cccn21` [Compound 591b, 9-((4-(trifluoromethyl)benzyl)oxy)-10H-pyrrolizino[1,2-b]quinolin-10-one]: the IC50 in test [1] was in the range of 0.05 to 5 mM; in [2], 0.05 to 5 mM; in [3], 0.05 to 5 mM; in test [4] it was 1 to 10 µM; in the test on NF-κB, 0.1 to 1 µM; in [5], 0.05 to 5 mM. Besides, the IC50 (in test [6]; in the test on BHK-21 cells; in test [7]) was 0.05 to 5 mM in each case.

As for `O=C1c2c(n(Cc3ccc(OC(F)(F)F)cc3)c3ccccc3c2=O)-c2cccn21` [Compound 592a, 4-(4-(Trifluoromethoxy)benzyl)-9H-pyrrolizino[1,2-b]quinoline-9,10(4H)-dione], the IC50 in test [1] was in the range of 0.05 to 5 mM; in [2], 0.05 to 5 mM; in [3], 0.05 to 5 mM; in test [4], 1 to 10 µM; in the test with NF-κB it was 1 to 10 µM; in [5] it was 0.05 to 5 mM. Moreover, the IC50 (in test [6]; in the test on BHK-21 cells; in [7]) was 0.05 to 5 mM in each case.

For the compound `O=C1c2c(nc3ccccc3c2OCc2ccc(OC(F)(F)F)cc2)-c2cccn21` [Compound 592b, 9-((4-(trifluoromethoxy)benzyl)oxy)-10H-pyrrolizino[1,2-b]quinolin-10-one], the IC50 was 0.05 to 5 mM in test [1]; 0.05 to 5 mM in test [2]; 0.05 to 5 mM in [3]; 1 to 10 µM in test [4]; 1 to 10 µM with NF-κB; 0.05 to 5 mM in test [5]. For the same compound, the IC50 (in test [6]; in the test with BHK-21 cells; in test [7]) was 0.05 to 5 mM each time.

Take `O=C1c2c(n(Cc3ccc([N+](=O)[O-])cc3)c3ccccc3c2=O)-c2cccn21` [Compound 593a, 4-(4-Nitrobenzyl)-9H-pyrrolizino[1,2-b]quinoline-9,10(4H)-dione]: the IC50 in test [1] lay within 0.05 to 5 mM; in test [2], 0.05 to 5 mM; in test [3] it was 0.05 to 5 mM; in [4], 1 to 10 µM; in the test with NF-κB, 0.1 to 1 µM; in test [5], 0.05 to 5 mM. For the same compound, the IC50 (in test [6]; with BHK-21 cells; in [7]) was 0.05 to 5 mM each time.

Turning to `O=C1c2c(nc3ccccc3c2OCc2ccc([N+](=O)[O-])cc2)-c2cccn21` [Compound 593b, 9-((4-nitrobenzyl)oxy)-10H-pyrrolizino[1,2-b]quinolin-10-one], the IC50 in test [1] was in the range of 0.05 to 5 mM; in [2] it was 0.05 to 5 mM; in [3] it was 0.05 to 5 mM; in test [4], 1 to 10 µM; with NF-κB it was 1 to 10 µM; in [5] it was 0.05 to 5 mM. Further, the IC50 (in test [6]; in the test on BHK-21 cells; in test [7]) was 0.05 to 5 mM in each case.

Regarding `O=C1c2c(n(Cc3ccc(Br)cc3)c3ccccc3c2=O)-c2cccn21` [Compound 594a, 4-(4-Bromobenzyl)-9H-pyrrolizino[1,2-b]quinoline-9,10(4H)-dione], the IC50 was in the range of 0.05 to 5 mM in test [1]; 0.05 to 5 mM in test [2]; 0.05 to 5 mM in test [3]; 1 to 10 µM in test [4]; 0.1 to 1 µM in the test on NF-κB; 0.05 to 5 mM in [5]. Besides, the IC50 in [6] was 0.05 to 5 mM; in the test on BHK-21 cells it was under 0.05 mM; in [7], 0.05 to 5 mM.

As to `O=C1c2c(nc3ccccc3c2OCc2ccc(Br)cc2)-c2cccn21` [Compound 594b, 9-((4-bromobenzyl)oxy)-10H-pyrrolizino[1,2-b]quinolin-10-one], the IC50 in test [1] lay within 0.05 to 5 mM; in test [2], 0.05 to 5 mM; in test [3], 0.05 to 5 mM; in test [4], 1 to 10 µM; in the test with NF-κB, 1 to 10 µM; in test [5] it was 0.05 to 5 mM. Also, the IC50 (in test [6]; in the test on BHK-21 cells; in test [7]) was 0.05 to 5 mM throughout.

In the case of `O=C1c2c(n(Cc3cccc(F)c3)c3ccccc3c2=O)-c2cccn21` [Compound 595a, 4-(3-Fluorobenzyl)-9H-pyrrolizino[1,2-b]quinoline-9,10(4H)-dione], the IC50 was 0.05 to 5 mM in test [1]; 0.05 to 5 mM in test [2]; 0.05 to 5 mM in test [3]; 0.1 to 1 µM in [4]; 1 to 10 µM in the test on NF-κB; 0.05 to 5 mM in [5]. Further, the IC50 in test [6] was under 0.05 mM; in the test with BHK-21 cells it was 0.05 to 5 mM; in [7], 0.05 to 5 mM.

Regarding `O=C1c2c(nc3ccccc3c2OCc2cccc(F)c2)-c2cccn21` [Compound 595b, 9-((3-fluorobenzyl)oxy)-10H-pyrrolizino[1,2-b]quinolin-10-one], the IC50 in [1] was in the range of 0.05 to 5 mM; in [2], 0.05 to 5 mM; in test [3], 0.05 to 5 mM; in test [4], 0.1 to 1 µM; in the test on NF-κB, 1 to 10 µM; in test [5] it was 0.05 to 5 mM. Also, the IC50 (in [6]; in the test on BHK-21 cells; in [7]) was 0.05 to 5 mM throughout.

With `O=C1c2c(n(Cc3cccc(Cl)c3)c3ccccc3c2=O)-c2cccn21` [Compound 596a, 4-(3-Chlorobenzyl)-9H-pyrrolizino[1,2-b]quinoline-9,10(4H)-dione], the IC50 fell in the range of 0.05 to 5 mM in test [1]; 0.05 to 5 mM in test [2]; 0.05 to 5 mM in test [3]; 1 to 10 µM in test [4]; 1 to 10 µM in the test on NF-κB; 0.05 to 5 mM in test [5]. Besides, the IC50 (in test [6]; in the test on BHK-21 cells; in [7]) was 0.05 to 5 mM in each case.

As for `O=C1c2c(nc3ccccc3c2OCc2cccc(Cl)c2)-c2cccn21` [Compound 596b, 9-((3-chlorobenzyl)oxy)-10H-pyrrolizino[1,2-b]quinolin-10-one], the IC50 in test [1] is 0.05 to 5 mM; in test [2], 0.05 to 5 mM; in test [3], 0.05 to 5 mM; in test [4] it was 1 to 10 µM; in the test on NF-κB, 1 to 10 µM; in test [5], 0.05 to 5 mM. In addition, the IC50 (in test [6]; with BHK-21 cells; in test [7]) was 0.05 to 5 mM in each case.
